The results in this text go back to patent US20190203230A1, “POROUS MEMBRANE-BASED MACROMOLECULE DELIVERY SYSTEM” (NOVARTIS AG, priority 2016, published 2019).

The subject of the assay is HbF. In words: Erythroid differentiation and HbF detection by flow cytometry. It counts as cell-based, human. The settings on record: erythroid differentiation, flow cytometry (days 7 and 14 collected; day of the values not stated); UNC0638 at 0.5 μM. As to the method: The present teachings (herein also referred to as TRIAMF for brevity) were applied for the delivery of RNPs consisting of guides targeting the HBG […] to recapitulate the genotype of a form of hereditary persistent fetal hemoglobin found in many patients. […] Through a combination of next generation sequencing (NGS) and quantitative PCR (qPCR), editing efficiency at the target site was determined to be a total average of 63% total editing.
FIG. 20 depicts percentage of HbF cells at D7 and D14 of erythroid differentiation protocol of WT, mock treated, HBG edited, and UNC0638 (Blood. 2015, July 30:126(5):665-72) positive control treated cells. Cells were analyzed by fixation and staining of CD235a,CD71, and HbF. The cells were collected on days 7 and 14 and stained with CD235a, CD71, and fetal hemoglobin, and analyzed with flow cytometry. […]

Regarding `COc1cc2c(NC3CCN(C(C)C)CC3)nc(C3CCCCC3)nc2cc1OCCCN1CCCC1` [UNC0638], the “cells expressed HbF” value is 92%.
